Measurements taken from the NIST ThermoML archive (doi:10.1021/je101361u).

Assay: xn = mol fraction of the nth substance listed
Conditions: 101.3 kPa, Liquid, Vibrating tube method

COCCOCCOC [2,5,8-trioxanonane] + ClCCCl
mass density [kg/m3]
Conditions | 283.15 K | 288.15 K | 293.15 K | 298.15 K | 303.15 K | 308.15 K
x2 = 0 | – | 948.72 | – | – | – | –
x2 = 0.0252 | 958.22 | 953.25 | 948.26 | 943.26 | 938.26 | 933.23
x2 = 0.0508 | 963.01 | 958.01 | 952.99 | 947.97 | 942.93 | 937.88
x2 = 0.0751 | 967.64 | 962.62 | 957.57 | 952.52 | 947.45 | 942.36
x2 = 0.1 | 972.47 | 967.4 | 962.33 | 957.24 | 952.14 | 947.02
x2 = 0.1502 | 982.62 | 977.49 | 972.35 | 967.19 | 962.02 | 956.85
x2 = 0.1999 | 993.12 | 987.92 | 982.7 | 977.48 | 972.24 | 966.98
x2 = 0.25 | 1004.25 | 998.97 | 993.69 | 988.39 | 983.08 | 977.75
x2 = 0.3002 | 1015.91 | 1010.56 | 1005.2 | 999.83 | 994.44 | 989.03
x2 = 0.3501 | 1028.01 | 1022.59 | 1017.14 | 1011.69 | 1006.21 | 1000.72
x2 = 0.4 | 1040.79 | 1035.28 | 1029.75 | 1024.2 | 1018.64 | –
x2 = 0.45 | 1054.2 | 1048.58 | 1042.96 | 1037.32 | 1031.66 | –
x2 = 0.5003 | 1068.49 | 1062.78 | 1057.05 | 1051.31 | 1045.56 | –
x2 = 0.5499 | 1083.31 | 1077.45 | 1071.62 | 1065.77 | 1059.91 | –
x2 = 0.5999 | 1098.98 | 1093.07 | 1087.13 | 1081.17 | 1075.19 | –
x2 = 0.6501 | 1115.77 | 1109.73 | 1103.67 | 1097.58 | 1091.48 | –
x2 = 0.7 | 1133.3 | 1127.26 | 1121.07 | 1114.85 | 1108.62 | –
x2 = 0.75 | 1151.98 | 1145.68 | 1139.34 | 1132.98 | 1126.61 | –
x2 = 0.8 | 1172.08 | 1165.61 | 1159.12 | 1152.61 | 1146.07 | –
x2 = 0.8499 | 1193.31 | 1186.69 | 1180.04 | 1173.37 | 1166.67 | –
x2 = 0.9 | 1216.25 | 1209.44 | 1202.6 | 1195.74 | 1188.86 | –
x2 = 0.925 | 1228.27 | 1221.36 | 1214.42 | 1207.47 | 1200.48 | –
x2 = 0.9494 | 1240.66 | 1233.66 | 1226.62 | 1219.57 | 1212.48 | –
x2 = 0.975 | 1253.89 | 1246.79 | 1239.64 | 1232.47 | 1225.28 | –
